In patent publication US20070066632A1, “Fused bicyclic inhibitors of TGFbeta” (Scios, Inc., priority 2005, published 2007):

target: T1, TGFβ R1 (Homo sapiens, UniProt P36897); test: TGFβ R1 autophosphorylation protocol; format: biochemical; details: 10 uM ATP, 170 nM TGFβ R1, 20 minutes at room temperature; read-out: IC50 for Kinase Inhibition
T1 sequence (P36897 34-503): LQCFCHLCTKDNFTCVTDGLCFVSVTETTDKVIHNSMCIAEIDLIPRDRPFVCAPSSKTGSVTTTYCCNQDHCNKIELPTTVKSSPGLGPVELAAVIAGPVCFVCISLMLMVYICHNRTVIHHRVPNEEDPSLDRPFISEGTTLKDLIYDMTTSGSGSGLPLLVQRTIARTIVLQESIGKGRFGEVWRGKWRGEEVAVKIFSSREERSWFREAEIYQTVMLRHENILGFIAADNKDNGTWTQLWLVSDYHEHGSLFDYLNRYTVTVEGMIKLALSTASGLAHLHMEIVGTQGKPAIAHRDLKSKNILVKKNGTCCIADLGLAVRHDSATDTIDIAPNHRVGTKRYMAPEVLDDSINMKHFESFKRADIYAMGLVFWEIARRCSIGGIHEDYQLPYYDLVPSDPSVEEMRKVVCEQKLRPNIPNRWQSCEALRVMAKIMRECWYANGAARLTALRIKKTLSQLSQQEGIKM
Experimental: The compounds of the invention were tested for their ability to inhibit TGFβ by a TGFβ R^1 autophosphorylation protocol. This was conducted as follows: Compound dilutions and reagents were prepared fresh daily. Compounds were diluted from DMSO stock solutions to 2 times the desired assay concentration, keeping final DMSO concentration in the assay less than or equal to 1%. TGFβ R1 was diluted to 4 times the desired assay concentration in buffer+DTT. ATP was diluted into 4× reaction buffer, and gamma-^33P-ATP was added at 60 uCi/mL.
The assay was performed by adding 10 ul of the enzyme to 20 ul of the compound solution. The reaction was initiated by the addition of 10 ul of ATP mix. Final assay conditions included 10 uM ATP, 170 nM TGFβ R1, and […] in 20 mM MOPS, pH7. The reactions were incubated at room temperature for 20 minutes. The reactions were stopped by transferring 23 ul of reaction mixture onto a phosphocellulose 96-well filter plate, which had been pre-wetted with 15 ul of 0.25M H3PO4 per well. After 5 minutes, the wells were washed 4× with 75 mM H3PO4 and once with 95% ethanol. The plate was dried, scintillation cocktail was added to each well, and the wells were counted in a Packard TopCount microplate scintillation counter.

IC50 | SMILES
1.6 µM | CNC(=O)c1cnccc1Nc1nc(-c2cc(Cl)ccc2NC)nc2ncccc12 [Compound 3]
0.03 µM | CNC(=O)c1cnccc1Nc1nc(-c2cc(Cl)ccc2F)nc2nc(N)ccc12 [Compound 4]
6.04 µM | CNC(=O)c1cnccc1Nc1nc(-c2cc(Cl)ccc2F)nc2nc(NCCN(C)C)ccc12 [Compound 5]
12.2 µM | CC(O)CNC(=O)c1cnccc1Nc1nc(-c2cc(Cl)ccc2F)nc2nc(NCCN(C)C)ccc12 (stereo not shown) [Compound 6]
0.98 µM | CNC(=O)c1cnccc1Nc1nc(-c2cc(Cl)ccc2F)nc2nc(NCCOC)ccc12 [Compound 7]
1.4 µM | COc1ccc(CNc2ccc3c(Nc4ccncc4C(=O)NC4CC4)nc(-c4cc(Cl)ccc4F)nc3n2)cc1 [Compound 8]
2.7 µM | Nc1ccc2c(Nc3ccncc3C(=O)NC3CC3)nc(-c3cc(Cl)ccc3F)nc2n1 [Compound 9]
5.01 µM | C[C@H](O)CNC(=O)c1cnccc1Nc1nc(-c2cc(Cl)ccc2F)nc2nc(N)ccc12 [Compound 10]
1.37 µM | COC(=O)c1cnccc1Nc1nc(-c2cc(Cl)ccc2F)nc2ncccc12 [Compound 11]
0.23 µM | O=C(O)c1cnccc1Nc1nc(-c2cc(Cl)ccc2F)nc2ncccc12 [Compound 12]
0.53 µM | CCOC(=O)c1cnccc1Nc1nc(-c2cc(Cl)ccc2F)nc2ncccc12 [Compound 13]
0.225 µM | CN(Cc1ccccc1)c1ccc2c(Nc3ccncc3C(=O)O)nc(-c3cc(Cl)ccc3F)nc2n1 [Compound 14]
0.569 µM | COc1ccc(CN(Cc2ccc(OC)cc2)c2ccc3c(Nc4ccncc4C(=O)O)nc(-c4cc(Cl)ccc4F)nc3n2)cc1 [Compound 15]
0.745 µM | COC(=O)c1cnccc1Nc1nc(-c2cc(Cl)ccc2F)nc2nc(N(Cc3ccc(OC)cc3)Cc3ccc(OC)cc3)ccc12 [Compound 16]
0.99 µM | COc1ccc(CNc2ccc3c(Nc4ccncc4C(=O)NCCCN4CCOCC4)nc(-c4cc(Cl)ccc4F)nc3n2)cc1 [Compound 18]

SMILES | IC50
NC(=O)c1cnccc1Nc1nc(-c2cc(Cl)ccc2F)nc2ncccc12 [Compound 1] | 0.02 µM
CNC(=O)c1cnccc1Nc1nc(-c2cc(Cl)ccc2F)nc2ncccc12 [Compound 2] | 0.07 µM

test system: HCV replicons (HCV type 1b NS3-NS5B) in Huh-Luc cells; test: HCV replicon assay (Huh-7 luc/neo, luciferase reporter); format: cell-based; details: Hepatitis C virus, Huh-7, 72 h, incubation of three days, luciferase activity
Excerpt: The pyrido[2,3-d]pyrimidine compounds of the present invention were examined for activity in the inhibition of HCV RNA replication in a cellular assay. […] The cellular assay was based on a bicistronic expression construct, as described by Lohmann et al. (1999) Science vol. 285 pp. 110-113 with modifications described by Krieger et al. (2001) Journal of Virology 75: 4614-4624, in a multi-target screening strategy. In essence, the method was as follows.
The assay utilized the stably transfected cell line Huh-7 luc/neo (hereafter referred to as Huh-Luc). […]
The replicon cells were plated in 384-well plates in the presence of the test and control compounds which were added in various concentrations. Following an incubation of three days, HCV replication was measured by assaying luciferase activity (using standard luciferase assay substrates and reagents and a Perkin Elmer ViewLux™, ultraHTS microplate imager). […] The inhibitory activity of the compound on luciferase activity was monitored on the Huh-Luc cells, enabling a dose-response curve for each test compound. […]
The replicon cells are plated in 384 well plates in the presence of the test and control compounds which are added in various concentrations. […] The inhibitory activity of the compound on luciferase activity is monitored on the Huh-Luc cells, enabling a dose-response curve for each test compound.

SMILES | EC50
NC(=O)c1cnccc1Nc1nc(-c2cc(Cl)ccc2F)nc2ncccc12 [Compound 1] | 0.76 µM
CNC(=O)c1cnccc1Nc1nc(-c2cc(Cl)ccc2F)nc2ncccc12 [Compound 2] | 11.9 µM
